According to publication PMC5610480, “Original Chemical Series of Pyrimidine Biosynthesis Inhibitors That Boost the Antiviral Interferon Response” (Antimicrobial Agents and Chemotherapy, 2017):
Where two headings read alike, the source gives them in different places.

Experiments:
[1] = system: de novo pyrimidine biosynthesis; experiment: Intracellular nucleoside/nucleotide and UDP-sugar levels by HPLC; format: cell-based, human
[2] = system: ISRE-luciferase reporter gene; experiment: ISRE-luciferase induction in STING-37 reporter cells; conditions: STING-37 cells, 24 h, increasing doses
[3] = system: MV-Luc; parameters: method as in PMID 25558988; conditions: HEK-293T cells; previously reported ref 9; read-out: IC50, inhibition of MV-Luc; cited from earlier work
[4] = in vitro; conditions: human
[5] = system: MV-Luc; experiment: microbe, parasite or virus in culture; format: cell-based, measles virus (MV); conditions: for IC50: Measles morbillivirus, HEK-293T, 24 h, read-out: IC50 (μM), inhibition of MV-Luc; for antiviral potency relative to DD363: MV-Luc IC50, fold higher than for DD363
[6] = system: IFN biological activity; experiment: IFN biological activity of culture supernatants on fresh STING-37 cells; conditions: no ssRNA, supernatants at 48 h
[7] = system: MDA5; experiment: RT-qPCR gene expression in STING-37 cells: MDA5; format: cell-based, human; conditions: 30 μM, 24 h, DMSO None = 1
Method: (§1) To further document the consequences of DD778 treatment on the cellular response to ssRNA, mRNA levels for RIG-I, MDA5, oligoadenylate synthase-like protein (OASL), IFN-α4, IFN-β, IFN-λ1, and IFN-λ2/3 were determined by reverse transcription-quantitative PCR (RT-qPCR). […] Furthermore, the effects of DD778 on the expression of these genes could be reversed by the addition of uridine in culture medium. […] In parallel, we measured in culture supernatants the concentrations of IFN-β, IFN-λ1, IFN-λ2/3, and interferon-inducible protein of 10 kDa (IP-10), which is a well-characterized IFN-inducible chemokine (Fig. 7C). […] This illustrates an original mechanism by which cells can communicate with neighbors on their metabolic status.
(§2) Upper images correspond to representative experiments.

[8] = system: ISRE-luciferase reporter gene; experiment: ISRE-luciferase response to MV infection in STING-37 cells; conditions: 30 μM added 9 h after infection, read 16 h later
[9] = system: CHIKV expressing Renilla luciferase; experiment: microbe, parasite or virus in culture; format: cell-based; conditions: Chikungunya virus, HEK-293T, 24 h, read-out: IC50, CHIKV Renilla luciferase
[10] = system: MV-Luc; experiment: Complementation of MV-Luc inhibition with uridine, DHO or orotate; conditions: 24 h
[11] = system: MDA5; experiment: Western blotting of MDA5 in STING-37 cells
[12] = system: RIG-I; experiment: RT-qPCR gene expression in STING-37 cells: RIG-I; format: cell-based, human; conditions: 30 μM, 24 h, DMSO None = 1
Method: as §1, §2

[13] = system: IFN-λ1; experiment: RT-qPCR gene expression in STING-37 cells: IFN-λ1; format: cell-based, human; conditions: 30 μM, 24 h, DMSO None = 1
Method: as §1, §2

[14] = system: IFN-α4; experiment: RT-qPCR gene expression in STING-37 cells: IFN-α4; format: cell-based, human; conditions: 30 μM, 24 h, DMSO None = 1
Method: as §1, §2

[15] = system: IFN-β, IFN-λ1, IFN-λ2/3, and IP-10; experiment: Cytokines in culture supernatants, LEGENDplex
[16] = system: RIG-I; experiment: Western blotting of RIG-I in STING-37 cells
[17] = system: IFN-β; experiment: RT-qPCR gene expression in STING-37 cells: IFN-β; format: cell-based, human; conditions: 30 μM, 24 h, DMSO None = 1
Method: as §1, §2

[18] = system: OASL; experiment: RT-qPCR gene expression in STING-37 cells: OASL; format: cell-based, human; conditions: 30 μM, 24 h, DMSO None = 1
Method: as §1, §2

[19] = system: IFN-λ2/3; experiment: RT-qPCR gene expression in STING-37 cells: IFN-λ2/3; format: cell-based, human; conditions: 30 μM, 24 h, DMSO None = 1
Method: as §1, §2

[20] = system: DHODH; parameters: method as in PMID 20183850; conditions: read-out: IC50 on the recombinant enzyme; cited from earlier work
[21] = MV MOI 2, 30 μM added at 9 h, 39 h more

Cc1c(-c2ccc(-c3ccccc3F)cc2)nc2ccc(F)cc2c1C(=O)O [Brequinar, brequinar, reference compound]
inhibition of de novo pyrimidine biosynthesis ([1]; submicromolar concentrations, 24 h): inhibited
induction of the ISRE-luciferase gene (compound alone) [2]: induced
IC50 [3]: 0.04 µM

O=C1CCCc2occ(-c3cccc(Cl)c3)c21 [DD264, reference compound]
CC50 at 24 h [4]: > 80 µM
IC50 [5]: 15 ± 2 µM

O=c1oc2ccccc2c2c1C(c1cccc(Cl)c1)C([N+](=O)[O-])O2 (centres unmarked) [DD311]
CC50 at 24 h [4]: > 50 µM
IC50 [5]: 47 ± 4 µM

O=c1oc2ccc(Cl)cc2c2c1C(c1c[nH]c3ccccc13)C([N+](=O)[O-])O2 (centres unmarked) [DD771]
CC50 at 24 h [4]: > 50 µM
antiviral potency relative to DD363 [5]: 2- to 9 fold
IC50 [5]: 1.7 ± 0.4 µM

Cc1cc2oc(=O)c3c(c2cc1C)OC([N+](=O)[O-])C3c1c[nH]c2ccccc12 (centres unmarked) [DD775]
CC50 at 24 h [4]: > 50 µM
IC50 [5]: 1.7 ± 0.4 µM

O=c1oc2ccc(F)cc2c2c1C(c1c[nH]c3ccccc13)C([N+](=O)[O-])O2 (centres unmarked) [DD776]
CC50 at 24 h [4]: > 50 µM
antiviral potency relative to DD363 [5]: 2- to 9 fold
IC50 [5]: 3.8 ± 0.8 µM

Cc1ccc2oc(=O)c3c(c2c1)OC([N+](=O)[O-])C3c1c[nH]c2ccccc12 (centres unmarked) [DD778]
CC50 at 24 h [4]: 207 ± 20 µM
IFN activity in supernatants of cells treated with compound alone [6]: did not show any IFN activity
MDA5 expression level (RT-qPCR) ([7]; ssRNA (60 ng/well)): 5±1
MDA5 expression level (RT-qPCR) ([7]; ssRNA (120 ng/well)): 23±2
MDA5 expression level (RT-qPCR) ([7]; ssRNA: None): 1.1±0.1
cellular response to MV infection (ISRE-luciferase) [8]: efficiently boosted
IC50 [9]: 1.4 ± 0.2 µM
antiviral potency relative to DD363 [5]: 2- to 9 fold
IC50 [5]: 2.9 ± 0.3 µM
effect of DHO on viral replication in treated cells ([10]; DD778 10 μM, DHO 3 mM): no effect
effect of uridine and orotate on viral replication in treated cells ([10]; DD778 10 μM, uridine 130 μM, orotate 3 mM): restore viral replication
MDA5 protein expression, ssRNA-transfected cells ([11]; 30 μM, 48 h): promoted the expression
effects on MDA5 protein expression, MV-infected cells [11, 21]: limited
RIG-I expression level (RT-qPCR) ([12]; ssRNA (60 ng/well)): 12±5
RIG-I expression level (RT-qPCR) ([12]; ssRNA (120 ng/well)): 57±9
RIG-I expression level (RT-qPCR) ([12]; ssRNA: None): 1.3±0.4
IFN-λ1 expression level (RT-qPCR) ([13]; ssRNA (60 ng/well)): 14±3
IFN-λ1 expression level (RT-qPCR) ([13]; ssRNA (120 ng/well)): 130±10
IFN-λ1 expression level (RT-qPCR) ([13]; ssRNA: None): 1.9±0.6
intracellular UDP-Gal level ([1]; HEK-293T cells treated 24 h): collapsed
intracellular UDP-GalNac level ([1]; HEK-293T cells treated 24 h): maintained at high levels
purine levels (A and G) ([1]; HEK-293T cells treated 24 h): unaffected
uridine (U) and cytidine (C) levels ([1]; HEK-293T cells treated 24 h): collapsed
IFN-α4 expression level (RT-qPCR) ([14]; ssRNA (60 ng/well)): 1.3±0.7
IFN-α4 expression level (RT-qPCR) ([14]; ssRNA (120 ng/well)): 1.4±0.6
IFN-α4 expression level (RT-qPCR) ([14]; ssRNA: None): 1.3±0.7
expression of IFN-β, IFN-λ1, IFN-λ2/3, and IP-10 in supernatants, ssRNA-stimulated cells ([15]; 30 μM, 120 ng ssRNA, 48 h): increased the expression
IFN-β expression in supernatants, MV-infected cells [15, 21]: not statistically enhanced
expression of IFN-λ1, IFN-λ2/3, and IP-10 in supernatants, MV-infected cells [15, 21]: efficiently increased
RIG-I protein expression, ssRNA-transfected cells ([16]; 30 μM, 48 h): promoted the expression
RIG-I protein expression, MV-infected cells [16, 21]: boosted
induction of the ISRE-luciferase gene (compound alone) [2]: induced
IFN-β expression level (RT-qPCR) ([17]; ssRNA (60 ng/well)): 4±3
IFN-β expression level (RT-qPCR) ([17]; ssRNA (120 ng/well)): 17±5
IFN-β expression level (RT-qPCR) ([17]; ssRNA: None): 1.5±0.8
OASL expression level (RT-qPCR) ([18]; ssRNA (60 ng/well)): 17±3
OASL expression level (RT-qPCR) ([18]; ssRNA (120 ng/well)): 111±21
OASL expression level (RT-qPCR) ([18]; ssRNA: None): 3±2
IFN-λ2/3 expression level (RT-qPCR) ([19]; ssRNA (60 ng/well)): 7±1
IFN-λ2/3 expression level (RT-qPCR) ([19]; ssRNA (120 ng/well)): 55±12
IFN-λ2/3 expression level (RT-qPCR) ([19]; ssRNA: None): 1.4±0.7

O=c1oc2ccc(Cl)cc2c2c1C(c1c[nH]c3ccc(Br)cc13)C([N+](=O)[O-])O2 (centres unmarked) [DD783]
CC50 at 24 h [4]: > 50 µM
IC50 [5]: 42 ± 7 µM

Cc1ccc2oc(=O)c3c(c2c1)OC([N+](=O)[O-])C3c1c[nH]c2ccc(Br)cc12 (centres unmarked) [DD784]
CC50 at 24 h [4]: > 50 µM
IC50 [5]: 40 ± 7 µM

O=C1C(=O)c2ccccc2C2=C1C(c1c[nH]c3ccccc13)C([N+](=O)[O-])O2 (centres unmarked) [DD785]
CC50 at 24 h [4]: > 50 µM
IC50 [5]: > 50 µM

Cc1cc2c(c(=O)o1)C(c1c[nH]c3ccccc13)C([N+](=O)[O-])O2 (centres unmarked) [DD786]
CC50 at 24 h [4]: > 50 µM
IC50 [5]: > 50 µM
induction of the ISRE-luciferase gene (compound alone) [2]: unable to do so

Cn1c(=O)c2c(c3ccccc31)OC([N+](=O)[O-])C2c1c[nH]c2ccccc12 (centres unmarked) [DD787]
CC50 at 24 h [4]: > 50 µM
IC50 [5]: 16 ± 3 µM

O=c1oc2ccccc2c(O)c1Cc1c(O)c2ccccc2oc1=O [Dicoumarol, dicoumarol, reference compound]
IC50 [5]: 12 ± 0.3 µM
antiviral effect when culture medium is supplemented with uridine ([10]; uridine 130 μM): fully reversed
induction of the ISRE-luciferase gene (compound alone) [2]: induced
IC50 [20]: 6.6 µM

Cn1cc(C2c3c(c4cc(Cl)ccc4oc3=O)OC2[N+](=O)[O-])c2ccccc21 (centres unmarked) [JP10]
CC50 at 24 h [4]: > 50 µM
IC50 [5]: > 50 µM

Cc1[nH]c2ccccc2c1C1c2c(c3cc(Cl)ccc3oc2=O)OC1[N+](=O)[O-] (centres unmarked) [JP25]
CC50 at 24 h [4]: > 50 µM
IC50 [5]: 47 ± 7 µM

O=c1oc2ccccc2c(O)c1C(C[N+](=O)[O-])c1c[nH]c2ccccc12 (centres unmarked) [JP39]
CC50 [4]: > 50 µM
IC50 [5]: > 50 µM

O=c1oc2ccccc2c2c1C(c1c[nH]c3ccccc13)CO2 (centres unmarked) [JP42]
CC50 at 24 h [4]: > 50 µM
IC50 [5]: 16 ± 3 µM

O=c1oc2ccc(Cl)cc2c2c1C(c1c[nH]c3ccccc13)CO2 (centres unmarked) [JP46]
CC50 at 24 h [4]: 50 ± 8 µM
decrease of antiviral potency relative to DD771 ([5]; MV-Luc IC50): 9 fold
IC50 [5]: 16 ± 4 µM

CCc1ccc2oc(=O)c3c(c2c1)OC([N+](=O)[O-])C3c1c[nH]c2ccccc12 (centres unmarked) [JP49]
CC50 at 24 h [4]: > 50 µM
antiviral potency relative to DD363 [5]: 2- to 9 fold
IC50 [5]: 5.3 ± 1.1 µM

O=c1oc2ccc(Br)cc2c2c1C(c1c[nH]c3ccccc13)C([N+](=O)[O-])O2 (centres unmarked) [JP52]
CC50 at 24 h [4]: > 50 µM
antiviral potency relative to DD363 [5]: 2- to 9 fold
IC50 [5]: 1.2 ± 0.2 µM

C/C(O)=C(\C#N)C(=O)Nc1ccc(C(F)(F)F)cc1 [Teriflunomide, teriflunomide]
IC50 [3]: 5 µM
